Assay results taken from ChEMBL document CHEMBL5512658, “Development of benzimidazole-based compounds as novel capsid assembly modulators for the treatment of HBV infection” (Eur J Med Chem, 2024).
Activity calls are given as the source filed them. The rule behind the calls is not given here.

Experiments:
Core antigen [1] = target: T1, Core antigen (Hepatitis B virus, UniProt Q03732); assay: Inhibition of Hepatitis B virus core protein expressed in HBC cells derived from HEK293T cells assessed as reduction in HBcAg level incubated for 6 hrs by Nano-glo luciferase assay; format: cell-based
T1 sequence (Q03732 whole entry): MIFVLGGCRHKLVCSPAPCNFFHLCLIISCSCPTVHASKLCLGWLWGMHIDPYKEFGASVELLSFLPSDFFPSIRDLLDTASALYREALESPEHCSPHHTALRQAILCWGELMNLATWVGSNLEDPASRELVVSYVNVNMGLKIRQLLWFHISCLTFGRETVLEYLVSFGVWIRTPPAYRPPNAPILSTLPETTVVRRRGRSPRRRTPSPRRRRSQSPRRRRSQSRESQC

HepG2 = assay: Cytotoxicity against human HepG2 cells measured after 3 days by resazurin staining based analysis; format: functional; conditions: HepG2, 72 h, time 3 day
[2] = test system: Hepatitis B virus core protein; assay: Selectivity index, ratio of CC50 for human HepG2 cells to IC50 for Hepatitis B virus core protein expressed in HEK293T cells; format: toxicity, cell-based; conditions: read-out: Ratio CC50/IC50
Core antigen [3] = target: T1, Core antigen; assay: Inhibition of Hepatitis B virus core protein expressed in HBC cells derived from HEK293T cells assessed as reduction in HBcAg level […] incubated for 6 hrs by Nano-glo luciferase assay; format: cell-based
Hepatitis B virus [4] = assay: Antiviral activity against HBV infected in human HePAD38 cells assessed as reduction HBV capsid level at 5 uM media replaced for every 2 to 3 days incubated for 7 days by Western blot analysis; format: functional, organism-based; conditions: time 7.0 day
Hepatitis B virus [5] = assay: Antiviral activity against HBV infected in human HePAD38 cells assessed as inhibition of HBV capsid assembly by measuring secretion of particles containing HBV DNA at 5 uM incubated for 7 days by Southern blot analysis; format: functional, organism-based; conditions: time 7.0 day
Hepatitis B virus [6] = assay: Antiviral activity against HBV infected in human HePAD38 cells assessed as reduction in intracellular core HBV DNA level media replaced for every 2 to 3 days incubated for 7 days by Western blot analysis; format: functional, organism-based
Hepatitis B virus [7] = assay: Antiviral activity against HBV infected in human HepAD38 cells assessed as inhibition of viral replication; format: functional, organism-based

EC50 (Hepatitis B virus [7])	IC50 (Core antigen [1]; hbc)	SMILES	IC50 (Core antigen [1]; read-out: IC50)	CC50 (HepG2)	selectivity ratio [2]	IC50 (Core antigen [3])	Activity (Hepatitis B virus [4])	Activity (Hepatitis B virus [5])	EC50 (Hepatitis B virus [6])
–	–	COc1ccc(Nc2nc3ccccc3[nH]2)cc1	6.13 µM	65.6 µM	10.7	–	–	–	–
–	–	COc1ccc([S+]([O-])c2nc3ccccc3[nH]2)cc1 (stereo not given)	36.5 µM	34 µM	0.93	–	–	–	–
–	–	COc1ccc(Cc2nc3ccccc3n2CC(O)CO)cc1 (stereo not given)	3.07 µM	> 100 µM	> 32.6	–	–	–	–
–	–	COCC(Cn1c(Cc2ccc(OC)cc2)nc2ccccc21)OC (stereo not given)	19.8 µM	> 100 µM	> 5.06	–	–	–	–
–	–	COc1ccc(Cc2nc3ccccc3s2)cc1	–	32.6 µM	–	Not Active	–	–	–
–	–	COc1ccc(S(=O)(=O)c2nc3ccccc3[nH]2)cc1	26.9 µM	65.2 µM	2.42	–	–	–	–
–	–	COc1ccc(C2(c3nc4ccccc4[nH]3)CC2)cc1	21.8 µM	> 100 µM	> 4.58	–	–	–	–
–	–	Clc1ccc(Sc2nc3ccccc3[nH]2)cc1Cl	11.1 µM	> 100 µM	> 9.03	–	–	–	–
–	–	Fc1ccc(Sc2nc3ccccc3[nH]2)cc1	12 µM	13.3 µM	1.11	–	–	–	–
–	–	Brc1ccc(Sc2nc3ccccc3[nH]2)cc1	1.8 µM	13.9 µM	7.73	–	–	–	–
–	–	Fc1cc(F)cc(Sc2nc3ccccc3[nH]2)c1	19.7 µM	> 100 µM	> 5.07	–	–	–	–
–	–	COc1ccc(Sc2nc3ccccc3n2C)cc1	5.68 µM	25.8 µM	4.54	–	–	–	–
–	–	COc1ccc(Cc2nc3ccccc3n2C)cc1	4.85 µM	22.1 µM	4.55	–	Active	Active	–
–	–	COc1ccc(Cc2nc3ccccc3n2C(C)=O)cc1	1.57 µM	42.8 µM	27.2	–	–	Active	16.1 µM
–	–	COc1ccc(Cc2nc3ccccc3o2)cc1	36.3 µM	> 100 µM	> 2.76	–	–	–	–
–	–	COc1ccc(Cc2nc3ccccc3n2CC(O)COc2ccccc2)cc1 (stereo not given)	1.99 µM	12.3 µM	6.18	–	–	–	0.07 µM
–	–	CCCCCn1c(Cc2ccc(OC)cc2)nc2ccccc21	7.63 µM	46.5 µM	6.1	–	–	–	–
–	–	OCCn1c(Sc2ccc(F)cc2)nc2ccccc21	22.2 µM	84.7 µM	3.82	–	–	–	–
–	–	COc1ccc(-c2nc3ccccc3[nH]2)cc1	–	10.3 µM	–	Not Active	–	–	–
0.0243 µM	–	COC(=O)C1=C(C)NC(c2ncc(F)cc2F)=N[C@H]1c1ccc(F)cc1Cl	–	–	–	–	–	–	–
–	–	COc1ccc(CCCc2nc3ccccc3[nH]2)cc1	22.8 µM	47 µM	2.06	–	Active	Active	–

EC50 (Hepatitis B virus [7])	IC50 (Core antigen [1]; hbc)	SMILES	IC50 (Core antigen [1]; read-out: IC50)	CC50 (HepG2)	selectivity ratio [2]	IC50 (Core antigen [3])	Activity (Hepatitis B virus [4])	Activity (Hepatitis B virus [5])	EC50 (Hepatitis B virus [6])
–	–	COc1ccc(Cc2nc3ccccc3n2CCCCc2ccccc2)cc1	27.7 µM	44.6 µM	1.61	–	–	–	–
–	–	COc1ccc(Cc2nc3ccccc3n2-c2ccccc2)cc1	52.9 µM	14.2 µM	–	–	–	–	–
–	–	Clc1ccc(Sc2nc3ccccc3[nH]2)cc1	2.94 µM	13.7 µM	4.65	–	–	–	–
–	–	COCC(O)Cn1c(Cc2ccc(OC)cc2)nc2ccccc21 (stereo not given)	3.32 µM	> 100 µM	> 30.1	–	–	–	–
–	–	CCCn1c(Cc2ccc(OC)cc2)nc2ccccc21	11.4 µM	> 100 µM	> 8.79	–	–	–	–
–	–	COc1ccc(Cc2nc3ccccc3n2CCCO)cc1	4.17 µM	> 100 µM	> 24	–	–	Active	–
–	Not Active	COc1ccc(Oc2nc3ccccc3[nH]2)cc1	–	> 100 µM	–	–	–	–	–
–	–	COc1ccc(Sc2nc3ccccc3n2C(C)=O)cc1	12 µM	> 100 µM	> 8.37	–	–	–	–
–	–	CCc1ccc(Sc2nc3ccccc3n2CCO)cc1	4.5 µM	82.8 µM	18.4	–	–	–	–
–	–	COc1ccc(Cc2nc3ccccc3n2CCCCCCO)cc1	3.36 µM	30.3 µM	9.02	–	Active	–	–
–	–	COc1ccc(Cc2nc3ccccc3n2CC(=O)COc2ccccc2)cc1	3.67 µM	10.2 µM	2.79	–	–	–	–
–	–	COc1ccc(Cc2nc3ccccc3n2CCO)cc1	2.37 µM	> 100 µM	> 42.2	–	Active	Active	–
–	–	COc1ccc(Cc2nc3ccccc3n2CCCOc2cccnc2)cc1	1.21 µM	13.4 µM	11.1	–	–	–	–
–	–	OCCn1c(Sc2ccc(Br)cc2)nc2ccccc21	2.01 µM	71.8 µM	35.7	–	–	–	1.99 µM
–	–	COc1ccc(CCc2nc3ccccc3[nH]2)cc1	34.3 µM	> 100 µM	> 2.91	–	Active	Active	–
–	–	COCCCn1c(Cc2ccc(OC)cc2)nc2ccccc21	9.65 µM	> 100 µM	> 10.4	–	Active	Active	–
–	–	COc1ccc(Cc2nc3ccccc3n2C(C)C)cc1	41.5 µM	37.1 µM	0.96	–	–	–	–
–	–	CCn1c(Cc2ccc(OC)cc2)nc2ccccc21	4.51 µM	29.5 µM	6.55	–	–	–	–
–	–	COc1ccc(Cc2nc3ccccc3n2C[C@@H](O)COc2ccccc2)cc1	2.41 µM	9.72 µM	4.03	–	–	–	–
–	–	COc1ccc(Cc2nc3ccccc3n2CCCNc2ccccc2)cc1	1.26 µM	12.3 µM	9.73	–	–	–	–
–	–	Cc1ccc(Sc2nc3ccccc3[nH]2)cc1	6.81 µM	61 µM	8.96	–	–	–	–

EC50 (Hepatitis B virus [7])	IC50 (Core antigen [1]; hbc)	SMILES	IC50 (Core antigen [1]; read-out: IC50)	CC50 (HepG2)	selectivity ratio [2]	IC50 (Core antigen [3])	Activity (Hepatitis B virus [4])	Activity (Hepatitis B virus [5])	EC50 (Hepatitis B virus [6])
–	–	COc1ccc(Sc2nc3ccccc3[nH]2)cc1	1.08 µM	8.13 µM	7.53	–	Active	Active	2 µM
–	–	OCCn1c(Sc2ccc(Cl)cc2)nc2ccccc21	3.6 µM	50.7 µM	14.1	–	–	–	6.37 µM
–	–	CCCCn1c(Cc2ccc(OC)cc2)nc2ccccc21	6.48 µM	> 100 µM	> 15.4	–	–	–	–
–	–	COc1ccc(Cc2nc3ccccc3n2CCCOc2ccccc2)cc1	1.25 µM	12.7 µM	10.2	–	–	–	–
–	–	COc1ccc(Cc2nc3ccccc3n2CCCCCO)cc1	0.95 µM	29.5 µM	31.1	–	Active	Active	15.9 µM
–	–	COc1ccc(Cc2nc3ccccc3[nH]2)cc1	2.05 µM	> 100 µM	> 48.8	–	–	Active	11.9 µM
–	–	COc1ccc(Cc2nc3ccccc3n2CCCCO)cc1	2.45 µM	34.4 µM	14.1	–	Active	Active	–
–	–	OCCn1c(Sc2cccc(F)c2)nc2ccccc21	49.3 µM	> 100 µM	> 2.03	–	–	–	–
–	–	OCCn1c(Sc2ccc(Cl)c(Cl)c2)nc2ccccc21	7 µM	> 100 µM	> 14.3	–	–	–	–
–	–	CCOC(=O)Cn1c(Cc2ccc(OC)cc2)nc2ccccc21	9.41 µM	22.1 µM	2.35	–	–	–	–
–	–	COc1ccc(Cc2nc3ccccc3n2C2CCC2)cc1	27.2 µM	89.6 µM	3.29	–	–	–	–
0.29 µM	–	O=C(NCc1cc(F)c(F)c(F)c1)c1ccc(F)c(S(=O)(=O)N2CCC(O)CC2)c1	–	–	–	–	–	–	–
–	–	Clc1cccc(Sc2nc3ccccc3[nH]2)c1	26.5 µM	> 100 µM	> 3.77	–	–	–	–
–	–	COc1ccc(Cc2nc3ccccc3n2C[C@H](O)COc2ccccc2)cc1	2.46 µM	15.2 µM	6.18	–	–	–	–
–	–	COc1ccc(Sc2nc3ccccc3n2CCCCCO)cc1	0.6 µM	> 100 µM	> 167	–	Active	Active	5.7 µM
–	–	CCOC(=O)n1c(Cc2ccc(OC)cc2)nc2ccccc21	2.18 µM	44.2 µM	20.3	–	Active	Active	–
–	Not Active	Fc1cccc(Sc2nc3ccccc3[nH]2)c1	–	> 100 µM	–	–	–	–	–
–	–	COc1ccc(Cc2nc3ccccc3n2CCCOC(C)=O)cc1	14 µM	> 100 µM	> 7.15	–	–	Active	–
–	–	CCc1ccc(Sc2nc3ccccc3[nH]2)cc1	3.93 µM	17.2 µM	4.37	–	–	–	–
–	–	COc1ccc(Cc2nc3ccccc3n2CCCBr)cc1	7.85 µM	26.2 µM	3.34	–	–	–	–
